Patent US5843437A, “A82846 antibiotics” (Eli Lilly and Company, priority 1995, dated 1998)
≈ marks a conversion by molar mass, not a printed value. Entries after “also recorded” stand apart in the source; their conditions may differ.

What was measured:
[1] = tested on: Cultures A82846 and A82846.1; experiment: resistance to antibiotics, antibiotic sensitivity discs on seeded agar plates; settings: disc 30 μg
Bacteroides fragilis = experiment: MIC against anaerobic bacteria, standard agar-dilution assay (Table IX); assay type: cell-based; settings: Bacteroides fragilis; 3 strains; Gram-negative anaerobe; 24-hour incubation; read-out: MIC
[2] = tested on: Peptococcus asaccharolyticus; experiment: as above; assay type: cell-based; settings: Peptoniphilus asaccharolyticus; 3 strains; Gram-positive anaerobe; 24-hour incubation; read-out: MIC
Peptococcus variabilis = experiment: as above; assay type: cell-based; settings: 1 strain; Gram-positive anaerobe; 24-hour incubation; read-out: MIC
Propionibacterium acnes = experiment: as above; assay type: cell-based; settings: Cutibacterium acnes; 19 strains; Gram-positive anaerobe; 24-hour incubation; read-out: MIC
[3] = tested on: Streptococcus faecalis X-66; experiment: Rat Endocarditis Test, catheter-induced (Table XII); assay type: in vivo, rats; settings: 16 days, 20 mg/kg × 28, subcutaneous at 12-hour intervals for 14 days
Method: The A82846 antibiotics are also useful in the treatment of endocarditis. […] In this test, rats were prepared by inserting a plastic catheter into the right carotid artery, feeding it down into the […] of the heart and anchoring it securely. The animals were allowed to rest two days, and then the test organism, Streptococcus faecalis X-66, was administered intravenously. The organism titer was approximately 5×10^8 /mL; 0.5 mL was administered.
The compounds were administered subcutaneously 15 minutes prior to infection and at 12-hour intervals for 14 days, a total of 28 treatments. The animals were held 2 days after therapy; then, the hearts were removed, homogenized, diluted and plated on trypticase soy agar. Plates were incubated 48 hours before counting.
^a Catheterinduced endocarditis using Streptococcus faecalis X66
^b Subcutaneous doses at 12hour intervals for 14 days
^c % of animals sacrificed with 4 log drop

[4] = tested on: Fusobacterium necrophorum; experiment: MIC against anaerobic bacteria, standard agar-dilution assay (Table IX); assay type: cell-based; settings: Fusobacterium necrophorum; 1 strain; Gram-negative anaerobe; 24-hour incubation; read-out: MIC
Bacteroides vulgatis = experiment: as above; assay type: cell-based; settings: Bacteroides; 1 strain; Gram-negative anaerobe; 24-hour incubation; read-out: MIC
Eubacterium aerofaciens = experiment: as above; assay type: cell-based; settings: Collinsella aerofaciens; 1 strain; Gram-positive anaerobe; 24-hour incubation; read-out: MIC
[5] = tested on: Bacteroides melaninogenicus; experiment: as above; assay type: cell-based; settings: 2 strains; Gram-negative anaerobe; 24-hour incubation; read-out: MIC
Fusobacterium symbiosum = experiment: as above; assay type: cell-based; settings: Fusobacterium; 1 strain; Gram-negative anaerobe; 24-hour incubation; read-out: MIC
Peptococcus prevoti = experiment: as above; assay type: cell-based; settings: 4 strains; Gram-positive anaerobe; 24-hour incubation; read-out: MIC
[6] = tested on: experimental descending pyelonephritis infection in rats; experiment: Rat Descending Pyelonephritis Test (Table XI); assay type: in vivo
Method: In one important aspect of their antibacterial activity, the A82846 antibiotics are useful for treating pyelonephritis. […] This test was carried out using a procedure like that described in U.S. Pat. No. 4,208,403.
^a Doses twice per day subcutaneously for 6 days

[7] = serum half-life after intravenous administration to rats; settings: rat, in vivo, rats, intravenously
Excerpt: The A82846 antibiotics have excellent in vitro and in vivo activity against Gram-positive pathogenic bacteria. A particularly unexpected attribute of these antibiotics is their long serum half-life.

Streptococcus sanguis = experiment: MIC by standard agar-dilution assay (Table VIII); assay type: cell-based; settings: Streptococcus, 4 strains tested, read-out: MIC
Method: (§1) The MIC's in Tables VII and VIII were determined by standard agar-dilution assays.

Streptococcus pyogenes [8] = experiment: MIC by standard agar-dilution assay (Table VIII); assay type: cell-based; settings: Streptococcus pyogenes, 12 strains tested, read-out: MIC
Method: as §1

Streptococcus pneumoniae [9] = experiment: MIC by standard agar-dilution assay (Table VIII); assay type: cell-based; settings: Streptococcus pneumoniae, 20 strains tested, read-out: MIC
Method: as §1

Streptococcus salivaris = experiment: MIC by standard agar-dilution assay (Table VIII); assay type: cell-based; settings: Streptococcus, 1 strain tested, read-out: MIC
Method: as §1

[10] = tested on: Staphylococcus epidermidis; experiment: MIC by standard agar-dilution assay (Table VIII); assay type: cell-based; settings: Staphylococcus epidermidis, 20 strains tested, read-out: MIC
Method: as §1

Staphylococcus aureus [11] = experiment: MIC by standard agar-dilution assay (Table VIII); assay type: cell-based; settings: Staphylococcus aureus, 20 strains tested, read-out: MIC
Method: as §1

Streptococcus mutans = experiment: MIC by standard agar-dilution assay (Table VIII); assay type: cell-based; settings: Streptococcus mutans, 2 strains tested, read-out: MIC
Method: as §1

[12] = tested on: Streptococcus sp. group. D; experiment: MIC by standard agar-dilution assay (Table VIII); assay type: cell-based; settings: Streptococcus, 20 strains tested, read-out: MIC
Method: as §1

Streptococcus pyogenes [13] = experiment: protection of mice experimentally infected with test organism (Table X); assay type: in vivo; settings: sc, read-out: ED50 Value
Method: (§2) The A82846 antibiotics have also shown in vivo antimicrobial activity against experimentally-induced infections in laboratory animals. When two doses of test compound were administered to mice experimentally infected with the test organism, the activity observed was measured as an ED50 value [effective dose in mg/kg to protect 50% of the test animals: see Warren Wick, et al., J. Bacteriol. 81, 233-235 (1961)].
(§3) ^a mg/kg × 2; doses administered subcutaneously to mice 1 and 4

Streptococcus pneumoniae [14] = experiment: as above; assay type: in vivo; settings: sc, read-out: ED50 Value
Method: as §2, §3

Staphylococcus aureus [15] = experiment: as above; assay type: in vivo; settings: sc, read-out: ED50 Value
Method: as §2, §3

[16] = tested on: Peptostreptococcus anaerobius; experiment: MIC against anaerobic bacteria, standard agar-dilution assay (Table IX); assay type: cell-based; settings: Peptostreptococcus anaerobius; 8 strains; Gram-positive anaerobe; 24-hour incubation; read-out: MIC
Bacteroides corrodens = experiment: as above; assay type: cell-based; settings: Eikenella corrodens; 1 strain; Gram-negative anaerobe; 24-hour incubation; read-out: MIC
Clostridium perfringens = experiment: microbe, parasite or virus in culture; assay type: cell-based; settings: Clostridium perfringens, 24 h
[17] = tested on: Peptostreptococcus intermedius; experiment: MIC against anaerobic bacteria, standard agar-dilution assay (Table IX); assay type: cell-based; settings: Peptostreptococcus; 3 strains; Gram-positive anaerobe; 24-hour incubation; read-out: MIC
[18] = tested on: Bacteroides thetaiotaomicron; experiment: as above; assay type: cell-based; settings: Bacteroides thetaiotaomicron; 1 strain; Gram-negative anaerobe; 24-hour incubation; read-out: MIC
Peptococcus constellatus = experiment: as above; assay type: cell-based; settings: Streptococcus constellatus; 1 strain; Gram-positive anaerobe; 24-hour incubation; read-out: MIC
Clostridium septicum = experiment: as above; settings: Clostridium septicum, 24 h
Clostridium difficile = experiment: as above; assay type: cell-based; settings: Clostridioides difficile; 19 strains; Gram-positive anaerobe; 24-hour incubation; read-out: MIC
Peptococcus magnus = experiment: as above; assay type: cell-based; settings: Finegoldia magna; 3 strains; Gram-positive anaerobe; 24-hour incubation; read-out: MIC
[19] = human medicine; cited from earlier work
[20] = 2 mg/kg × 12, subcutaneous twice per day for 6 days
[21] = 5 mg/kg × 12, subcutaneous twice per day for 6 days
[22] = 10 mg/kg × 12, subcutaneous twice per day for 6 days

For `CN[C@H](CC(C)C)C(=O)N[C@H]1C(=O)N[C@@H](CC(N)=O)C(=O)N[C@H]2C(=O)N[C@H]3C(=O)N[C@H](C(=O)N[C@H](C(=O)O)c4cc(O)cc(O)c4-c4cc3ccc4O)[C@H](O)c3ccc(c(Cl)c3)Oc3cc2cc(c3O[C@@H]2O[C@H](CO)[C@@H](O)[C@H](O)[C@H]2O[C@H]2C[C@](C)(N)[C@H](O)[C@H](C)O2)Oc2ccc(cc2Cl)[C@H]1O` [Vancomycin, vancomycin, reference compound], the antibiotic resistance [1] was “resistant”, the MIC (Bacteroides fragilis) was 32 to 64 µg/mL (≈ 22.1 to 44.2 µM) and the MIC [2] was 1 µg/mL (≈ 0.69 µM). The MIC (Peptococcus variabilis) was 1 µg/mL (≈ 0.69 µM), the MIC (Propionibacterium acnes) was 2 to 16 µg/mL (≈ 1.38 to 11 µM) and the “% Cured” value [3] was 100%. For the same compound, the “% With 4 Log Drop” value ([3]; % of animals sacrificed) was 100%, the MIC [4] was 1 µg/mL (≈ 0.69 µM) and the MIC (Bacteroides vulgatis) was 64 µg/mL (≈ 44.2 µM). For the same compound, the MIC (Eubacterium aerofaciens) was 2 µg/mL (≈ 1.38 µM), the MIC [5] was greater than 128 µg/mL and the MIC (Fusobacterium symbiosum) was 4 µg/mL (≈ 2.76 µM). For the same compound, the MIC (Peptococcus prevoti) was 1 to 4 µg/mL (≈ 0.69 to 2.76 µM), the “Percent of Rats Cured” value [6, 20] was 38% and the “Percent of Rats with a 4-Log Reduction in Titer” value [6, 20] was 75%. The “Percent of Rats Cured” value [6, 21] was 38%, the “Percent of Rats with a 4-Log Reduction in Titer” value [6, 21] was 88% and the “Percent of Rats Cured” value [6, 22] was 63%. The “Percent of Rats with a 4-Log Reduction in Titer” value [6, 22] was 100%, the half-life [7] was 45 min and the MIC (Streptococcus sanguis) was 0.5 to 1 µg/mL (≈ 0.345 to 0.69 µM). For the same compound, the MIC (Streptococcus pyogenes [8]) was 0.5 µg/mL (≈ 0.345 µM), the MIC (Streptococcus pneumoniae [9]) was 0.015 to 4 µg/mL (≈ 0.0104 to 2.76 µM) and the MIC (Streptococcus salivaris) was 0.5 µg/mL (≈ 0.345 µM). The MIC [10] was 1 to 2 µg/mL (≈ 0.69 to 1.38 µM), the MIC (Staphylococcus aureus [11]) was 0.5 to 2 µg/mL (≈ 0.345 to 1.38 µM) and the MIC (Streptococcus mutans) was 0.125 to 2 µg/mL (≈ 0.0863 to 1.38 µM). For the same compound, the MIC [12] was 1 to 2 µg/mL (≈ 0.69 to 1.38 µM), the ED50 (Streptococcus pyogenes [13]) was 0.72 mg/kg and the ED50 (Streptococcus pneumoniae [14]) was 1.52 mg/kg. For the same compound, the ED50 (Staphylococcus aureus [15]) was 1.3 mg/kg, the MIC [16] was 0.25 to 2 µg/mL (≈ 0.173 to 1.38 µM) and the MIC (Bacteroides corrodens) was 64 µg/mL (≈ 44.2 µM). For the same compound, the MIC (Clostridium perfringens) was 2 µg/mL (≈ 1.38 µM), the MIC [17] was 0.5 to 1 µg/mL (≈ 0.345 to 0.69 µM) and the MIC [18] was 64 µg/mL (≈ 44.2 µM). It also gave an MIC (Peptococcus constellatus) of 1 µg/mL (≈ 0.69 µM), an MIC (Clostridium septicum) of 2 µg/mL (≈ 1.38 µM) and an MIC (Clostridium difficile) of 0.5 to 4 µg/mL (≈ 0.345 to 2.76 µM). The MIC (Peptococcus magnus) was 0.25 to 1 µg/mL (≈ 0.173 to 0.69 µM) and the side effects [19] was “ototoxicity; also recorded: nephrotoxicity”.
